The text below walks through data of PMC10878532, “Sperm Toolbox—A selection of small molecules to study human spermatozoa” (PLOS ONE, 2024).

SMILES strings stand for the structures. Structures can show the parent of a compound that is named as a salt.

Data set [1] concerns human spermatozoa. The experiment in a line: Motility assay (non-capacitating conditions). It counts as cell-based. As to the method: (§1) To compare the effects of STB compounds on specific sperm functions (e.g. motility, acrosome reaction, viability), we screened them in multiple phenotypic functional assays described below. Each sperm function assay has been repeated in multiple donor pools (see Materials and methods), where each pool consists of cells donated from at least 3 different donors to address donor to donor variability. Each compound has been tested at two concentrations, 10 and 30 μM, and normalized to vehicle controls (DMSO, see Materials and methods). We have modified our assays from the previously published workflow by increasing incubation time and introducing conditions that support capacitation, which is a sperm maturation process required for fertilization. These changes expand the range of targets that we can explore in our assays. Our live-sperm-based high-throughput motility assays use an automated microscope to record short timelapse movies. These assays can be run in different protocols (S1 Fig). […] In this protocol, cells are incubated with compounds for 10 min prior to the first motility read-out. A second and third motility read-out were performed after 3h and 6h incubation. The second protocol, denoted ‘capacitation assay’, utilises conditions that support capacitation (S1 Fig). In this protocol, cells are kept in conditions supporting capacitation for 30 minutes prior to 30 minutes incubation with compound, followed by motility read-out. Both protocols allow sperm motility to be measured (0.5 sec time-lapse movies allow tracking of cells and calculation of sperm kinematics). In addition, the capacitation assay also scores hyperactivation (i.e. distinct movement patterns concomitant with capacitation which are crucial for fertilization) (Fig 2A).
Cells were rested for 1 h post density gradient centrifugation. 10 μL assay buffer was dispensed into assay ready plates, plates were put onto a shaker instrument for 30 seconds using 1,000 rpm, followed by a short pulse centrifugation. Plates were incubated for 15–30 mins at 37°C prior to addition of 10 μL of pooled cells (at 1 M/mL concentration). Plates were then incubated in a Yokogawa CV7000 microscope set at 37°C for 10 min prior to imaging. Imaging a 384-well plate requires ≤ 20 min using the following settings: 2 positions per well, 0.5 sec timelapse movies (3x binning; 11 ms exposure time, 22 ms interval time, […]). A second and a third timepoint was recorded after 3 h, and 6 h incubation at 37°C. Data has been processed as described in [8]. Assay results are from 5 separate donor pools.
(§2) For cell painting imaging data, plates of images were imported into OMERO [70]. Cell segmentation and feature extraction were performed using CellProfiler 3 [71] and using instructions from to normalize data. Timelapse data of motility assays was processed as previously described. Acrosome flow cytometry data was processed using NovoCyte Express (PerkinElmer), to gate out background debris, select for single cells and calculate percentage values of acrosome positive events. Sperm viability flow cytometry data was processed using iQue Forecyt (Satorius) to gate out background debris, select for single cells and calculate percentage values of propidium iodide positive events. For all sperm functional assays, data was normalized to DMSO control wells. Each plate had 16 DMSO wells. A median value of all 16 wells was used to calculated percentage change (pct_ch = ((value / DMSO_median) -1) * 100). For sperm viability we calculated fold-change (fc = 1 − (value / DMSO_median)). For each compound we calculated a p-value using a Welch’s t-test implemented in scipy (scipy.stats.ttest_ind) comparing a compounds effect to DMSO controls.

For another data set, the system named is LRRK2 kinase. Particulars: cited from earlier work.
For a further data set, the system named is spermatozoa. Also noted: method as in per compound as listed in column References of Table 1. Particulars: summaries of reported effects; ref per compound as listed in Table 1; cited from earlier work.
For data set [2], the system named is Testis-Specific Serine/Threonine Kinase 2 (TSSK2). Also noted: method as in PMID 28952188. Particulars: described as; cited from earlier work.
Data set [3] relates to human spermatozoa. The experiment in a line: Acrosome assay, protocol 1 (3h incubation with compound, no agonist; flow cytometry, PNA). It counts as cell-based. The note with it: 3h with compound, no agonist addition. The procedure: The acrosome assays utilize a high-throughput flow cytometer (S1 Fig) to score for compounds inducing the acrosome reaction, using peanut agglutinin conjugated to a fluorescent dye to label the outer acrosomal membrane. We have developed two different screening protocols, named ‘acrosome 1’ and ‘acrosome 2’ (S1 Fig). […] This addition allowed measurement of inhibition of acrosome reaction (Fig 2B).
(§3) In both experimental protocols, 20 μL of pooled cells (at 1 M/mL concentration) were capacitated for 3 h in presence of compounds at 37°C and 5% CO2. In protocol a, cells were then stained with PNA-Alexa647 (ThermoFisher, 1 mg/mL, final dilution 1:1000) and Hoechst dye for 30 min at 37°C and 5% CO2, followed by 10 min fixation at RT by adding 20 μL of 4% paraformaldehyde (Sigma) in PBS. In mode b, a cocktail of progesterone, prostaglandin A and NH4Cl was added to all compound wells and incubated for an additional 1 h at 37°C and 5% CO2 to induce acrosome reaction. This was followed by fixation and staining protocol as for mode a. In both protocols fixatives and stains were removed and cells were resuspended in PBS, using a 405 platewasher. Plates were then measured on a Novocyte Advanteon high-throughput flow cytometer. Gating of data has been performed using the flow cytometer software to export counts of gated populations. The Acrosome 1 protocol using 3h incubation with compounds was run in 7 separate donor pools. The Acrosome 2 protocol using 3h incubation with compound followed by 1h stimulation of acrosome reaction was run in 5 separate donor pools.
as §2

In data set [4] the test system is human spermatozoa. The experiment in a line: Acrosome assay, protocol 2 (3h with compound, then 1h agonist cocktail). Type of data set: cell-based. The note with it: cluster in Fig 3A; 3h with compound then agonist mix. As to the method: The acrosome assays utilize a high-throughput flow cytometer (S1 Fig) to score for compounds inducing the acrosome reaction, using peanut agglutinin conjugated to a fluorescent dye to label the outer acrosomal membrane. We have developed two different screening protocols, named ‘acrosome 1’ and ‘acrosome 2’ (S1 Fig). Both protocols are capable of measuring induction of the acrosome reaction upon compound incubation. However, in the acrosome 2 assay, a mixture of physiological agonists of the acrosome reaction is used after cells have been incubated with compounds for 3h under conditions that support capacitation. This addition allowed measurement of inhibition of acrosome reaction (Fig 2B).
as §3
as §2, with “Sperm viability flow cytometry data was processed using iQue Forecyt (Satorius) to gate out background debris, select for single cells and calculate percentage values of propidium iodide positive events. For all sperm functional assays, data was normalized to DMSO control wells. Each plate had 16 DMSO wells.” left out

Data set [5] relates to human spermatozoa. The experiment in a line: Capacitation assay (motility and hyperactivation under capacitating conditions). Type of data set: cell-based. The note with it: cluster in Fig 3A; 30 min capacitation then 30 min with compound. As to the method:
as §1
Cells were capacitated for 30 min at 37°C and 5% CO2. 10 μL assay buffer was dispensed into assay ready plates, plates were put onto a shaker instrument for 30 seconds using 1,000 rpm, followed by a short pulse centrifugation. Plates were incubated for 15–30 mins at 37°C and 5% CO2 prior to addition of 10 μL of pooled cells (at 1 M/mL concentration). This was followed by a 20 min compound incubation step at 37°C and 5% CO2. Plates were then incubated in our CV7000 microscope set at 37°C and 5% CO2 for 10 min prior to imaging. […]
For cell painting imaging data, plates of images were imported into OMERO [70]. […] A median value of all 16 wells was used to calculated percentage change (pct_ch = ((value / DMSO_median) -1) * 100). For sperm viability we calculated fold-change (fc = 1 − (value / DMSO_median)). For each compound we calculated a p-value using a Welch’s t-test implemented in scipy (scipy.stats.ttest_ind) comparing a compounds effect to DMSO controls.

Data set [6] concerns human spermatozoa. The experiment in a line: Sperm viability assay (propidium iodide, flow cytometry). The note with it: 3h with compound. It counts as cell-based. The procedure:
In this assay, cells are incubated for 3h with compound in non-capacitating media, prior to viability assessment.
Cells were incubated with compounds for a total of 3h at 37°C. 20 min prior, propidium iodide was added (1.5 mM solution, Sigma, final dilution 1:2000). Plates were analysed using a Satorius iQue Screener with settings to allow for a sampling time of ≤30 min per 384-well plate. Gating of data has been performed using the flow cytometer software to export counts of gated populations. This assay was tested in 5 separate donor pools.
as §2

In a further data set the test system is HeLa. Description: HeLa cell painting cytotoxicity assay. It counts as cell-based. The note with it: 24h compound incubation.
The test system of the next data set is HepG2. The experiment in a line: HepG2 cytotoxicity assay (resazurin based). It counts as cell-based. Particulars: 70h incubation.

Protocol for HeLa: The HeLa-based assay uses the cell painting assay [11], while the HepG2 assay utilizes a resazurin based viability read-out [64].
Cell were incubated with compounds for 24h.
• 10 μL of MitoTracker (Life Technologies, M22426, 1 mM stock in DMSO as recommended by the vendor) is added to 50 μL of media (1:2000 final dilution) • Phalloidin-Alexa594 (Life Technologies, A12381, 66 μM stock in methanol as recommended by the vendor, 1:500 final dilution) • WGA-Alexa594 (Life Technologies, W11262, 5 mg/mL stock, 1:250 final dilution) was used • DAPI (5 mg/mL stock; 1:1000 final dilution) was used to stain DNA • 20 μL of staining solution was used • PBS was used for washing steps
For cell painting imaging data, plates of images were imported into OMERO [70]. Cell segmentation and feature extraction were performed using CellProfiler 3 [71] and using instructions from [11] to normalize data.

As for `COc1cc(N2CCOCC2)ccc1Nc1ncc(F)c(Nc2ccccc2NS(C)(=O)=O)n1` [CZC 25146], the sperm motility result in the data set with human spermatozoa [1] is “decrease sperm motility”. Moreover, the LRRK2 inhibition result in the data set with LRRK2 kinase (annotated as) is listed as “potent LRRK2 inhibitor”.
For the compound `CNS(=O)(=O)c1ccccc1Nc1nc(Nc2ccc(C3CCN(C)CC3)cc2OC)ncc1Cl` [Compound 19], the sperm motility entry with human spermatozoa [1] is listed as “decrease sperm motility”. For the same compound, the “Published Phenotype” value in the data set with spermatozoa is “Blocks TSSK; similarity to brigatinib”. Besides, in data set [2], the TSSK2 inhibition entry is “potent”.
Regarding `COc1cc(C(=O)N2CCC(N3CCN(C)CC3)CC2)ccc1Nc1ncc2c(n1)N(C)c1ccccc1C(=O)N2C` [LRRK2-IN-1], in the data set on human spermatozoa [3], the “acrosome reacted cells without agonist cocktail” value was “no change”. Besides, the “acrosome reaction (acrosome reacted cells)” value in the data set on human spermatozoa [4] is “significantly increased”. Also, the progressive motility result in the data set with human spermatozoa [1] (non-capacitating conditions, Fig 2) is reported as “enhances motility”. Moreover, the hyperactive motility entry with human spermatozoa [5] is “significantly increased”. Further, the “effects on sperm viability” value in the data set with human spermatozoa [6] was “do not show effects”. Also, in the data set on HeLa, the “general cytotoxicity (HeLa)” value is listed as “do not show effects”. Further, the “general cytotoxicity (HepG2)” value with HepG2 is on record as “do not show effects”. In the data set on LRRK2 kinase (described as), the LRRK2 kinase inhibition entry is listed as “selective inhibitor”.
As for `COc1cc2c(cc1OC)-c1c/c(=N\c3c(C)cc(C)cc3C)n(C)c(=O)n1CC2` [Trequinsin hydrochloride], the “acrosome reaction (acrosome reacted cells)” value in the data set on human spermatozoa [4] is reported as “significantly increased”. Further, the hyperactive motility result in the data set with human spermatozoa [5] is “significantly increased”. In addition, in the data set on human spermatozoa [6], the “effects on sperm viability” value is given as “do not show effects”. Besides, the “general cytotoxicity (HeLa)” value in the data set with HeLa was “do not show effects”. Moreover, the “general cytotoxicity (HepG2)” value in the data set with HepG2 was “do not show effects”. The “Published Phenotype” value in the data set with spermatozoa was “Increases hyperactivated sperm; increases penetration of sperm into viscous media, increases motility”.
